Read-outs that look alike come from different tables or passages of the source.
Columns and labels:
CHK1 = biological target: T1, CHK1 (Homo sapiens, UniProt O14757); experiment: Kinase profiling in vitro at 1 μM; assay type: biochemical
T1 sequence (O14757 1-476): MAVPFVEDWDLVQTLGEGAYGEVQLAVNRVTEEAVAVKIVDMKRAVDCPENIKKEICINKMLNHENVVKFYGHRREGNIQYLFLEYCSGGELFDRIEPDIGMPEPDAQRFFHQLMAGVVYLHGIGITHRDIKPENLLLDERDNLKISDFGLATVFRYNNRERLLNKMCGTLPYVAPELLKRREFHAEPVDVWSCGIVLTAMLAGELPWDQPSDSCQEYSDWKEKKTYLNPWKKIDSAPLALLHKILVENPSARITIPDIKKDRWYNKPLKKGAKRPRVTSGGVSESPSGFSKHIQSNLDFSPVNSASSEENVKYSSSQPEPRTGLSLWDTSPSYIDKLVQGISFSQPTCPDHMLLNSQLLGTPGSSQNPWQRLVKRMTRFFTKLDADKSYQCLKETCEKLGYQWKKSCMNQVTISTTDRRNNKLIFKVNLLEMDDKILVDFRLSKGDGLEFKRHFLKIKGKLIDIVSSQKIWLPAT
Experimental: (§1) The specificity of C14 was tested, in vitro, against 121 kinases representative of the kinome. Assays run in duplicate, at the concentration of 1 μM, were performed by MRC (Dundee, UK). Results are represented in FIG. 1. The main targets are highlighted in FIG. 1B.
(§2) In addition, the percentage of remaining activity of recombinant kinases Aurora kinases A and B and Checkpoint kinases 1 and 2 at the concentration of 1 μM of C1, C2 and C14 have been determined.
(§3) The profiling was performed at the MRC (Dundee University), in duplicate, on a set of 121 kinases. The panel is representative of the major different classes of kinases. Compounds were used at the concentration of 1 μM. In vitro, IC50 were determined on recombinant kinases by Reaction biology Corp (USA).

Chk2 = Chk2 (Homo sapiens, UniProt O96017); experiment: Kinase profiling in vitro at 1 μM; assay type: biochemical
Experimental: as §1, §2, §3

Aurora B = Aurora B (Homo sapiens, UniProt Q96GD4); experiment: Kinase profiling in vitro at 1 μM; assay type: biochemical
Experimental: as §1, §2, §3

[1] = system: Hek cells stably expressing tubulin-GFP; experiment: Time-lapse of Hek cells expressing tubulin-GFP; assay type: cell-based; details: 0.5 μM; continuous imaging
Experimental: Mitotic Hek cells stably expressing tubulin-GFP were continuously imaged and representative of either control or treated cells (C14 and C1, 0.5 μM) are shown. Elapse times are indicated on each photo.
Mitotic Hek cells stably expressing tubulin-GFP were continuously imaged and representative of either control or treated cells (C14 and C1, 0.5 μM) are shown (FIG. 8). Elapse times are indicated on each photo. In the control as well as in the presence of C1 the mitotic spindle is organized (24 min and To respectively) whereas in the presence of C14, the two poles are only connected by few microtubules (97 min and 130 min). Finally, in the presence of C14, cells escape from mitosis and cytoplasmic microtubules are observed (159 min and 212 min). Note that a duplication of the spindle occurs upon C1 treatment (106 min)

NUAK1 [2] = biological target: T2, NUAK1 (Homo sapiens, UniProt O60285); experiment: In vitro IC50 on recombinant kinase; assay type: biochemical
T2 construct: Reaction biology Corp (USA), service
T2 sequence (O60285 1-661): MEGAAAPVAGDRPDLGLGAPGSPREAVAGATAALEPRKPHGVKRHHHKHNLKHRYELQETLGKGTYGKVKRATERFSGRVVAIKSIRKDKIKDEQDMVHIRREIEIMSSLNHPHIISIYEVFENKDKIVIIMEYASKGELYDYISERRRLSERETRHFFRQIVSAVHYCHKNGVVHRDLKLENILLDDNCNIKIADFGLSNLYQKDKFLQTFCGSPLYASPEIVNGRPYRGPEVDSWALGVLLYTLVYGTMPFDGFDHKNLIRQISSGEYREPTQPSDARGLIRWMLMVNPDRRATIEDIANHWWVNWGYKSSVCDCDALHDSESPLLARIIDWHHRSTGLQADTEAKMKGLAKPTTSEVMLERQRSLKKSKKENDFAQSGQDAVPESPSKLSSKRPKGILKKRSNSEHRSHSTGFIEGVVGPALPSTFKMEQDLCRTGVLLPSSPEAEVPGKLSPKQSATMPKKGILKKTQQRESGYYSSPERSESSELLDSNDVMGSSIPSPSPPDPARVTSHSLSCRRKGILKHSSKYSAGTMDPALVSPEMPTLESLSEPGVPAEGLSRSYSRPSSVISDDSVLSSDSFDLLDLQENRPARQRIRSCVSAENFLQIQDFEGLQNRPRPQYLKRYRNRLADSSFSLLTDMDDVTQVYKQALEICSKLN
Experimental: The efficiency of the 3-amino-ethoxy compounds to inhibit Nuak1 was determined in vitro.
as §3

MELK = MELK (Homo sapiens, UniProt Q14680); experiment: Kinase profiling in vitro at 1 μM; assay type: biochemical; details: 1 microMolar in vitro, read-out: Percent of remaining activity
Experimental: as §3, with “The specificity of C14 was tested, in vitro, against 121 kinases representative of the kinome. Assays run in duplicate, at the concentration of 1 μM, were performed by MRC (Dundee, UK). Results are represented in FIG. 1. The main targets are highlighted in FIG. 1B. The profiling” for “The profiling”

NUAK1 [3] = biological target: T2, NUAK1; experiment: Kinase profiling in vitro at 1 μM; assay type: biochemical; details: 1 microMolar in vitro, read-out: Percent of remaining activity
Experimental: as §3, with “The specificity of C14 was tested, in vitro, against 121 kinases representative of the kinome. Assays run in duplicate, at the concentration of 1 μM, were performed by MRC (Dundee, UK). Results are represented in FIG. 1. The main targets are highlighted in FIG. 1B. The profiling” for “The profiling”

Gck = Gck (Homo sapiens, UniProt Q12851); experiment: Kinase profiling in vitro at 1 μM; assay type: biochemical; details: 1 microMolar in vitro, read-out: Percent of remaining activity
Experimental: as §3, with “The specificity of C14 was tested, in vitro, against 121 kinases representative of the kinome. Assays run in duplicate, at the concentration of 1 μM, were performed by MRC (Dundee, UK). Results are represented in FIG. 1. The main targets are highlighted in FIG. 1B. The profiling” for “The profiling”

TrkA = TrkA (Homo sapiens, UniProt P04629); experiment: Kinase profiling in vitro at 1 μM; assay type: biochemical; details: 1 microMolar in vitro, read-out: Percent of remaining activity
Experimental: as §3, with “The specificity of C14 was tested, in vitro, against 121 kinases representative of the kinome. Assays run in duplicate, at the concentration of 1 μM, were performed by MRC (Dundee, UK). Results are represented in FIG. 1. The main targets are highlighted in FIG. 1B. The profiling” for “The profiling”

Brsk1 = Brsk1 (Homo sapiens, UniProt Q8TDC3); experiment: Kinase profiling in vitro at 1 μM; assay type: biochemical; details: 1 microMolar in vitro, read-out: Percent of remaining activity
Experimental: as §3, with “The specificity of C14 was tested, in vitro, against 121 kinases representative of the kinome. Assays run in duplicate, at the concentration of 1 μM, were performed by MRC (Dundee, UK). Results are represented in FIG. 1. The main targets are highlighted in FIG. 1B. The profiling” for “The profiling”

Tak1 = Tak1 (Homo sapiens, UniProt O43318); experiment: Kinase profiling in vitro at 1 μM; assay type: biochemical; details: 1 microMolar in vitro, read-out: Percent of remaining activity
Experimental: as §3, with “The specificity of C14 was tested, in vitro, against 121 kinases representative of the kinome. Assays run in duplicate, at the concentration of 1 μM, were performed by MRC (Dundee, UK). Results are represented in FIG. 1. The main targets are highlighted in FIG. 1B. The profiling” for “The profiling”

CAMKKb = CAMKKb (Homo sapiens, UniProt Q96RR4); experiment: Kinase profiling in vitro at 1 μM; assay type: biochemical; details: 1 microMolar in vitro, read-out: Percent of remaining activity
Experimental: as §3, with “The specificity of C14 was tested, in vitro, against 121 kinases representative of the kinome. Assays run in duplicate, at the concentration of 1 μM, were performed by MRC (Dundee, UK). Results are represented in FIG. 1. The main targets are highlighted in FIG. 1B. The profiling” for “The profiling”

STK33 = STK33 (Homo sapiens, UniProt Q9BYT3); experiment: Kinase profiling in vitro at 1 μM; assay type: biochemical; details: 1 microMolar in vitro, read-out: Percent of remaining activity
Experimental: as §3, with “The specificity of C14 was tested, in vitro, against 121 kinases representative of the kinome. Assays run in duplicate, at the concentration of 1 μM, were performed by MRC (Dundee, UK). Results are represented in FIG. 1. The main targets are highlighted in FIG. 1B. The profiling” for “The profiling”

FGFR1 = FGFR1 (Homo sapiens, UniProt P11362); experiment: Kinase profiling in vitro at 1 μM; assay type: biochemical; details: 1 microMolar in vitro, read-out: Percent of remaining activity
Experimental: as §3, with “The specificity of C14 was tested, in vitro, against 121 kinases representative of the kinome. Assays run in duplicate, at the concentration of 1 μM, were performed by MRC (Dundee, UK). Results are represented in FIG. 1. The main targets are highlighted in FIG. 1B. The profiling” for “The profiling”

[4] = Chk1, compound at 1 μM, read-out: percentage of remaining activity of recombinant kinase
[5] = 1 microMolar in vitro, read-out: Percent of remaining activity
[6] = compound at 1 μM, read-out: percentage of remaining activity of recombinant kinase

Aurora B, sequence (Q96GD4 whole entry): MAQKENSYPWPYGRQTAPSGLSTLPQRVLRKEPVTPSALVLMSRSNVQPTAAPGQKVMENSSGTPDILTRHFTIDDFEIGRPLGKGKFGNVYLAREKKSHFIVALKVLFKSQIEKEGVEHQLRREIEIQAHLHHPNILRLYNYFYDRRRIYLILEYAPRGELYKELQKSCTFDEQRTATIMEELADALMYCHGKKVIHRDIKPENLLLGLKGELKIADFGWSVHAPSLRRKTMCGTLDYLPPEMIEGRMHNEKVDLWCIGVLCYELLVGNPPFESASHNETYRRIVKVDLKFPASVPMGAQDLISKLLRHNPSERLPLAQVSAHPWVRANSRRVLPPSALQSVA
Chk2, sequence (O96017 whole entry, species assumed): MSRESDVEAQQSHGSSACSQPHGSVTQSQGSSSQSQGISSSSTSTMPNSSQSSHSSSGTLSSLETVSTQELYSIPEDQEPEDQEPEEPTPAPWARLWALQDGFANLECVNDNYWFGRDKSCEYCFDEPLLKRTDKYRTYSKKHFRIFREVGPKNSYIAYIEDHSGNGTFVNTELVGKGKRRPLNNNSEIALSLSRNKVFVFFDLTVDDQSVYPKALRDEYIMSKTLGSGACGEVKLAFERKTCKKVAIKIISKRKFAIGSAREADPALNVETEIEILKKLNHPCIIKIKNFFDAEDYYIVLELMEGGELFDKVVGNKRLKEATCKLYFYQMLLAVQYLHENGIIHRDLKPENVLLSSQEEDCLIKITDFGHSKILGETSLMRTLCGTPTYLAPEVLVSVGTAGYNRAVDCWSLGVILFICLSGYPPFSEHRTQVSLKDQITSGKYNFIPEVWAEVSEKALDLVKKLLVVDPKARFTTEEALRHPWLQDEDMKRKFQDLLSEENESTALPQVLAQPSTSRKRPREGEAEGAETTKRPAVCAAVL
CAMKKb, sequence (Q96RR4 whole entry, species assumed): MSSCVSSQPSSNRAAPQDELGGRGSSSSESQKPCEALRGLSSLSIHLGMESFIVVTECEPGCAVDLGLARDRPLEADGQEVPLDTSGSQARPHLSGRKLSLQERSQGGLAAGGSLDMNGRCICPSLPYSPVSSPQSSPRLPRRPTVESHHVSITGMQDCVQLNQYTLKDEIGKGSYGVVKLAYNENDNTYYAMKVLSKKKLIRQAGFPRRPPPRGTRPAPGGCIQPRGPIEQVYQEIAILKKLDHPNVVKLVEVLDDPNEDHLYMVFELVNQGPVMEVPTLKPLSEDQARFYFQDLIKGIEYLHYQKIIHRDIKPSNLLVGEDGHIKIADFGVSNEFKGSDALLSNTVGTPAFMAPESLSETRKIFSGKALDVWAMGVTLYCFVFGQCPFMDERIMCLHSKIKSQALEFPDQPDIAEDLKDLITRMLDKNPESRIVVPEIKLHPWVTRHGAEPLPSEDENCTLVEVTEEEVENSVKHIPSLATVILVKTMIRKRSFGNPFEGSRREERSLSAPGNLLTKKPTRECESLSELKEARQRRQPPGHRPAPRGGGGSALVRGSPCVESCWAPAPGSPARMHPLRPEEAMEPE
STK33, sequence (Q9BYT3 whole entry, species assumed): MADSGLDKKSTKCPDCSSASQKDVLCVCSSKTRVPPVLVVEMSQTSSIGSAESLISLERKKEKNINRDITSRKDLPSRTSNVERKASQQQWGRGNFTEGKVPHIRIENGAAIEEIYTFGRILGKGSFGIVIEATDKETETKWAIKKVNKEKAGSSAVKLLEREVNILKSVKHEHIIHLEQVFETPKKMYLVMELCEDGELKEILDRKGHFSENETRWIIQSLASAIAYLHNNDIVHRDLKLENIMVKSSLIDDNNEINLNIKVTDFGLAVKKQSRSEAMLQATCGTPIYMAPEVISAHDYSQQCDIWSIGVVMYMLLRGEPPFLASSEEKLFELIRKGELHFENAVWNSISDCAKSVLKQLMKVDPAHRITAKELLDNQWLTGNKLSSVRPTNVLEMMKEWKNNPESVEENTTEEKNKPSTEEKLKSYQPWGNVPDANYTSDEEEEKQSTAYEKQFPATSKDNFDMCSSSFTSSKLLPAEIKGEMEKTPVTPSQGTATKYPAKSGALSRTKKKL
FGFR1, sequence (P11362 22-822, species assumed): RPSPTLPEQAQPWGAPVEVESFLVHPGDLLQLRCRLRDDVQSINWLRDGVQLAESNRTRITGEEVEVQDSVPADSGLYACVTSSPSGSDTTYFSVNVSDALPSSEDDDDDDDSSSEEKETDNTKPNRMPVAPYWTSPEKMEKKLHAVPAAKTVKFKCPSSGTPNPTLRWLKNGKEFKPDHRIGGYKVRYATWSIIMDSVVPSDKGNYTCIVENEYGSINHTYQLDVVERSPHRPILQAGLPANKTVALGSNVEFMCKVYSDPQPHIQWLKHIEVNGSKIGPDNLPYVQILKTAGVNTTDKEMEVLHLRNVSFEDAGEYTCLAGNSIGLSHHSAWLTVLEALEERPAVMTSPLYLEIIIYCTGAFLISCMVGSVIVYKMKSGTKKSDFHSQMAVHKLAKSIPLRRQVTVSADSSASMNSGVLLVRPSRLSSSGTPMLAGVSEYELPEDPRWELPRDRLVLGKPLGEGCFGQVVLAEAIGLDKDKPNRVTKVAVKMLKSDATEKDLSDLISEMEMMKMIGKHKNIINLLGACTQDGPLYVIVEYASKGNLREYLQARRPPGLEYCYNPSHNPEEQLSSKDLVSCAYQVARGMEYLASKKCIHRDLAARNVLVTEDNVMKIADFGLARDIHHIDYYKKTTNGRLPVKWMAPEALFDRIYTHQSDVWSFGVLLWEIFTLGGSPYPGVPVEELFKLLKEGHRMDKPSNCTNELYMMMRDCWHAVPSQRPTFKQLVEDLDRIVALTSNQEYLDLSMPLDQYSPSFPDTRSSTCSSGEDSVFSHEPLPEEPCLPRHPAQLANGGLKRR
Gck, sequence (Q12851 whole entry): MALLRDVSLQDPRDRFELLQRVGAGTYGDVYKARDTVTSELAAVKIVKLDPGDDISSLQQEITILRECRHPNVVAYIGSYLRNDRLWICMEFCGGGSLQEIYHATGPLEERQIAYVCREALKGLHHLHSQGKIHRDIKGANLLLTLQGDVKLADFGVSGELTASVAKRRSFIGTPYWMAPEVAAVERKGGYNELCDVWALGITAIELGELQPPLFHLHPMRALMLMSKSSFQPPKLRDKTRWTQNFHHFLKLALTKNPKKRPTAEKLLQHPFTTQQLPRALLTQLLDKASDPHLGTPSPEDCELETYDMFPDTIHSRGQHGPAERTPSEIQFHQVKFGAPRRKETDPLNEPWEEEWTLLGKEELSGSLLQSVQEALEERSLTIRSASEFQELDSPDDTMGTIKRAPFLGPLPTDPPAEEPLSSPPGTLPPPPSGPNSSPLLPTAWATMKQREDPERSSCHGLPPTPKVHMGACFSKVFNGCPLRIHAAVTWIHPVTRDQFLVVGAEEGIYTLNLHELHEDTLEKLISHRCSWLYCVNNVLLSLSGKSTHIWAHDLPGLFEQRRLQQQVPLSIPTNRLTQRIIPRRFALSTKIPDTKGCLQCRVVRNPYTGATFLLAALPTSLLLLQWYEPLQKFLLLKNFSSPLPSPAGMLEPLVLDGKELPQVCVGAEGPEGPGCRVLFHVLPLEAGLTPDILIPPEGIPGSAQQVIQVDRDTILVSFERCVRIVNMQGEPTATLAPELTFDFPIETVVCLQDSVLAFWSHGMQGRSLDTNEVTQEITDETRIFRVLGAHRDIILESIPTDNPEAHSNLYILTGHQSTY
Tak1, sequence (O43318 1-303 limits assumed): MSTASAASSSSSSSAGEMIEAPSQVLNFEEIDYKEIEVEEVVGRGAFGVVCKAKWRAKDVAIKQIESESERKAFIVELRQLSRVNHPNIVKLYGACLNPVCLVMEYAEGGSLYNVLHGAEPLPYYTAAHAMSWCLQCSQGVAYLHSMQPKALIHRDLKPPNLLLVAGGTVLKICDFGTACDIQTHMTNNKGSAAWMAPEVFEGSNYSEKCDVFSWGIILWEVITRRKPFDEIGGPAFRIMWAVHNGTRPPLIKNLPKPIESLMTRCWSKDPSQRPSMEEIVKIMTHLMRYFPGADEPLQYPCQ
Tak1, sequence (Q15750 437-504 partner limits assumed): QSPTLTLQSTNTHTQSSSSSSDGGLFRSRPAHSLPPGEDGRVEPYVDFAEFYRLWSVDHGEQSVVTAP
MELK, sequence (Q14680 whole entry, species assumed): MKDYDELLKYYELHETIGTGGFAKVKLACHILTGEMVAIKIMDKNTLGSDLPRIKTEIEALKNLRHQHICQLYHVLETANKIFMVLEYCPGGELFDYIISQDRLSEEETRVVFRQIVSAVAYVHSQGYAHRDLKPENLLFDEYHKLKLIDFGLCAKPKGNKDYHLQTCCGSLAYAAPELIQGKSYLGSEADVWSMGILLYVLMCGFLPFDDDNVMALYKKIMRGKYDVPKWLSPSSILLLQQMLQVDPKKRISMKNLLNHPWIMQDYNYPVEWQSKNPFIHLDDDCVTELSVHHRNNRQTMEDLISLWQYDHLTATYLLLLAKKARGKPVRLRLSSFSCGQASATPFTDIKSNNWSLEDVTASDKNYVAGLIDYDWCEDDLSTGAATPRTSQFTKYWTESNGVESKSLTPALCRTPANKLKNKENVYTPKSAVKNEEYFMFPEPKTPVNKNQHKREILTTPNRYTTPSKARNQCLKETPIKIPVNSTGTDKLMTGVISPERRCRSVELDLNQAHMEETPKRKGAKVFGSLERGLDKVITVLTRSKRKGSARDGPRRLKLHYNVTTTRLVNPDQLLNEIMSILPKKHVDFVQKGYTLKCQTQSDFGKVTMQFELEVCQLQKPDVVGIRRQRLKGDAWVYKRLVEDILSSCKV

remaining activity at 1 µM (CHK1; CHK1, 1 microMolar in vitro, read-out: Percent of remaining activity) | remaining activity at 1 µM (CHK1; [4]) | remaining activity at 1 µM (Chk2; [5]) | remaining activity at 1 µM (Chk2; [6]) | remaining activity at 1 µM (Aurora B; [5]) | remaining activity at 1 µM (Aurora B; [6]) | IC50 (NUAK1 [2]) | remaining activity at 1 µM (MELK) | remaining activity at 1 µM (NUAK1 [3]) | remaining activity at 1 µM (Gck) | remaining activity at 1 µM (TrkA) | remaining activity at 1 µM (Brsk1) | remaining activity at 1 µM (Tak1) | remaining activity at 1 µM (CAMKKb) | remaining activity at 1 µM (STK33) | remaining activity at 1 µM (FGFR1) | SMILES | effect on mitotic spindle (in words) [1]
31% | 31% | 9% | 9% | 24% | 24% | 1.4 nM | 31% | 4% | 11% | 5% | 22% | 6% | 22% | 31% | 24% | Cc1c[nH]c(=O)c2c1[nH]c1ccc3cc(OCCN(C)C)ccc3c12 [Compound C14, 3-(2-N,N-Dimethylaminoethoxy)-8-methyl-7H,10H-benzo[e]pyrido(4,3-b)indol-11-one] | prevented mitotic spindle organization
 | 23% |  | 6% |  | 19% |  |  |  |  |  |  |  |  |  |  | CCc1c[nH]c(=O)c2c1[nH]c1ccc3cc(OC)ccc3c12 [Compound C1, reference compound] | induced its duplication
